We go through one compound from US6452005B1, “JAK-3 inhibitors for treating allergic disorders” (Parker Hughes Institute, priority 1999, dated 2002).

Where two headings read alike, the source gives them in different places.

The test system of experiment [1] is JAK3-dependent STAT activation. Kind of experiment: EMSA, IL-2 triggered STAT activation in 32Dc11/IL2Rβ cells. The class given is cell-based. On the procedure: (§1) Electrophoretic Mobility Shift Assays (EMSAs). EMSAs were performed to examine the effects of dimethoxyquinazoline compounds on cytokine-induced STAT activation (Goodman et. al., 1998). […] Cells were collected after 15 minutes and resuspended in lysis buffer (100 mM Tris-HCl pH 8.0, 0.5% NP-40, 10% glycerol, […], 0.1 mM NaVO3, 50 mM NaF, 150 mM NaCl, 1 mM DTT, 3 μg/ml Aprotinin, 2 μg/ml Pepstatin A, 1 μg/ml Leupeptin and 0.2 mM PMSF). Lysates were precleared by centrifugation for 30 min. Cell extracts (approximately 10 μg) were incubated with 2 μg of poly(dI-dC) for 30 minutes, followed by a 30 minutes incubation with 1ng of poly. nucleotide kinase-^32P labeled double stranded DNA oligonucleotide representing the IRF-1 STAT DNA binding sequence (Santa Cruz Biotechnology, Santa Cruz, Calif.). Samples were resolved by non-denaturing PAGE and visualized by autoradiography.

Experiment [2] relates to JAK1/JAK2-dependent STAT activation. Put plainly: EMSA, IL-3 triggered STAT activation in 32Dc11/IL2Rβ cells. The following applies: 10 μg/ml. The class given is cell-based. The procedure:
as §1
For orientation: In EMSA bound probe runs differently from free probe, usually more slowly.

Another experiment deals with T1, recombinant murine JAK3 (Mus musculus, UniProt Q62137).
T1 construct: made in house; host or cells: Sf21 insect cells, baculovirus
T1 sequence (Q62137 1-1100): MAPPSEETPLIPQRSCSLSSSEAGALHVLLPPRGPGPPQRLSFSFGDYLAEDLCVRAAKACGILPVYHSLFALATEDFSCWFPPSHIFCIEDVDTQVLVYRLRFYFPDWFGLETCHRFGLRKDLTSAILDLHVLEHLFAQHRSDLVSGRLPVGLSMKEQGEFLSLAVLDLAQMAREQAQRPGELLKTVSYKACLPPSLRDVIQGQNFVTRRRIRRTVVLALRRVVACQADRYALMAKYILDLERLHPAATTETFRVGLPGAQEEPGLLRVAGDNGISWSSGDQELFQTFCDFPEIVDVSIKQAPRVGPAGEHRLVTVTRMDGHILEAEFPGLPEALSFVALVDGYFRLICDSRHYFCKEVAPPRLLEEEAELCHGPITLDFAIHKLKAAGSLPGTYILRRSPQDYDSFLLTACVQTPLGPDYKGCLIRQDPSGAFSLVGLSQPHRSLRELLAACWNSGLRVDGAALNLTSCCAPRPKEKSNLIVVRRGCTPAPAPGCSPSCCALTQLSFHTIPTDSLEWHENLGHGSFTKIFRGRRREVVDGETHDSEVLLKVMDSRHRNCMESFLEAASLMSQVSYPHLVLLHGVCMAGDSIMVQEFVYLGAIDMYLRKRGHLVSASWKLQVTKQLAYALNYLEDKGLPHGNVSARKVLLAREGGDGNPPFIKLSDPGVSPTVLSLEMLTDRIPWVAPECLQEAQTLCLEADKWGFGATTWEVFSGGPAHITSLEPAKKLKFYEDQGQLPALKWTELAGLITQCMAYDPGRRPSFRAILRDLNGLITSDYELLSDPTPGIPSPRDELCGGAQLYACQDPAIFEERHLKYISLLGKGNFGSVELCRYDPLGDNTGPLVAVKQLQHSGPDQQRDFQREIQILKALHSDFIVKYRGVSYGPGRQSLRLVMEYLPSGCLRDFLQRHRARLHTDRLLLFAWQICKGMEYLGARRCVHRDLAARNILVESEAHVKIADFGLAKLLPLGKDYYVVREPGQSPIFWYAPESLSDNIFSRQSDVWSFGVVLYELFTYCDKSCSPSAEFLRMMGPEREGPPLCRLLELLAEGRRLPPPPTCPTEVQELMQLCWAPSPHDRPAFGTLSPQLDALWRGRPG
Put plainly: Immune complex kinase assay, recombinant JAK3 from baculovirus expression system. In kind it is biochemical. The note with it: recombinant murine JAK3, FIG. 6B. On the procedure:
(§2) Immune Complex Kinase Assays.
KL-2 EBV-transformed human lymphoblastoid B cells (native JAK3 kinase assays) or insect ovary cells (recombinant JAK3 kinase assays) were lysed with NP-40 lysis buffer (50 mM Tris, pH 8, 150 mM NaCl, 5 mM EDTA, 1% NP-40, 100 μM sodium orthovanadate, 100 μM sodium molybdate, 8 μg/ml aprotinin, 5 μg/ml leupeptin, and 500 μM PMSF) and centrifuged 10 minutes at 13000×g to remove insoluble material. Samples were immunoprecipitated with antisera prepared against JAK3. The antisera were diluted and immune complexes collected by incubation with 15 μl protein A Sepharose. After 4 washes with NP-40 lysis buffer, the protein A Sepharose beads were washed once in kinase buffer (20 mM MOPS, pH 7.0, 10 mM MgCl2) and resuspended in the same buffer. Reactions were initiated by the addition of 25 μCi γ[^32P] ATP (5000 Ci/mMole) and unlabeled ATP to a final concentration of 5 μM. Reactions were terminated by boiling for 4 min in SDS sample buffer. Samples were run on 9.5% SDS polyacrylamide gels and labeled proteins will be detected by autoradiography. […] For each drug concentration, a kinase activity index (KA) was determined by comparing the kinase activity in phosphorimager units (PIU) to that of the baseline sample. […]

The target in the next experiment is recombinant JAK2 (Homo sapiens, UniProt O60674). Put plainly: Immune complex kinase assay, recombinant JAK2. The note with it: FIG. 6C & D.
The target in the next experiment is T2, recombinant JAK1 (Homo sapiens, UniProt P23458).
T2 construct: made in house; host or cells: Sf21 insect cells, baculovirus
Kind of experiment: Immune complex kinase assay, recombinant JAK1. The following applies: FIG. 6C & D. In kind it is biochemical.
Description: as §2

The test system of another experiment is RBL-2H3 mast cells. Put plainly: IgE/antigen-induced degranulation and mediator release. In kind it is cell-based, rat. The following applies: 1 h preincubation, DNP-BSA challenge; at ≧30 μM. The text has this:
Vehicle treated control RBL-2H3 cells released 45.1±3.1% of their hexosaminidase contents after DNP-BSA challenge. […] Vehicle treated control cells released 11.3±1.3 pg LTC4, and 160±33.0 pg TNFα/10^6 mast cells. The results on LTC4 and TNFα release are expressed as percent of maximum control release from vehicle treated control mast cells. The data points represent the mean±SEM values obtained from 3-6 independent experiments. […] *P<0.05 and **P<0.0001 compared to control as determined by Student's t test.
Supernatants were removed and saved.

T2 sequence (P23458 whole entry): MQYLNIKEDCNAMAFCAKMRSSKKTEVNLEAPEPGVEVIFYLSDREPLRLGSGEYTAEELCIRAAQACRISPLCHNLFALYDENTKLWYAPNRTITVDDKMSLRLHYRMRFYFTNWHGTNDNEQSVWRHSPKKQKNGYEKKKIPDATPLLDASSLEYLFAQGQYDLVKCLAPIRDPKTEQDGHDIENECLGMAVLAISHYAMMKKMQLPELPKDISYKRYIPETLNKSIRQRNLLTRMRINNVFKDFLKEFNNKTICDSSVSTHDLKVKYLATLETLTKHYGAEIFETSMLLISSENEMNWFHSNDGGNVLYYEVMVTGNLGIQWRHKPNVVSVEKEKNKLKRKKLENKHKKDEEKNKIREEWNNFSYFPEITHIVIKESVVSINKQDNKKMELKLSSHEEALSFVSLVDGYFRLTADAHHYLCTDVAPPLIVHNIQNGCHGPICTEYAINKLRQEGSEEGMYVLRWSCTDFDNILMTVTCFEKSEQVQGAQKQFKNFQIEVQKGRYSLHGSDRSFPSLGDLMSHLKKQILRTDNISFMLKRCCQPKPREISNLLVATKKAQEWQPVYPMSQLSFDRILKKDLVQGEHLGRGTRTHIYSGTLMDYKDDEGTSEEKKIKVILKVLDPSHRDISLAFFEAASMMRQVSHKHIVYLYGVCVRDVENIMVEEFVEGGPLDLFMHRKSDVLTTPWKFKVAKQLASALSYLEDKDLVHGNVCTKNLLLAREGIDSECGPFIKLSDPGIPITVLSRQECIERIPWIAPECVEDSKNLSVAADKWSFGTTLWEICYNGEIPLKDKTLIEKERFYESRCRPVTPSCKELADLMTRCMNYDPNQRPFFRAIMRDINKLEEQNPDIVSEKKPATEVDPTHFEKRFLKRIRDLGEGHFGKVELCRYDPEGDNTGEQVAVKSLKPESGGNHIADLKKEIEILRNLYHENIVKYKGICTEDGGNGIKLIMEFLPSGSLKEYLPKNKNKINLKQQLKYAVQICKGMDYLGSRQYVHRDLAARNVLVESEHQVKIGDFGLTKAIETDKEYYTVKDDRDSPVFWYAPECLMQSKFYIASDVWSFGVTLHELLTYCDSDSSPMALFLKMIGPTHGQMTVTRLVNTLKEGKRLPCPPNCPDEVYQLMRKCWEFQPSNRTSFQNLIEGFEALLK
recombinant JAK2, sequence (O60674 whole entry): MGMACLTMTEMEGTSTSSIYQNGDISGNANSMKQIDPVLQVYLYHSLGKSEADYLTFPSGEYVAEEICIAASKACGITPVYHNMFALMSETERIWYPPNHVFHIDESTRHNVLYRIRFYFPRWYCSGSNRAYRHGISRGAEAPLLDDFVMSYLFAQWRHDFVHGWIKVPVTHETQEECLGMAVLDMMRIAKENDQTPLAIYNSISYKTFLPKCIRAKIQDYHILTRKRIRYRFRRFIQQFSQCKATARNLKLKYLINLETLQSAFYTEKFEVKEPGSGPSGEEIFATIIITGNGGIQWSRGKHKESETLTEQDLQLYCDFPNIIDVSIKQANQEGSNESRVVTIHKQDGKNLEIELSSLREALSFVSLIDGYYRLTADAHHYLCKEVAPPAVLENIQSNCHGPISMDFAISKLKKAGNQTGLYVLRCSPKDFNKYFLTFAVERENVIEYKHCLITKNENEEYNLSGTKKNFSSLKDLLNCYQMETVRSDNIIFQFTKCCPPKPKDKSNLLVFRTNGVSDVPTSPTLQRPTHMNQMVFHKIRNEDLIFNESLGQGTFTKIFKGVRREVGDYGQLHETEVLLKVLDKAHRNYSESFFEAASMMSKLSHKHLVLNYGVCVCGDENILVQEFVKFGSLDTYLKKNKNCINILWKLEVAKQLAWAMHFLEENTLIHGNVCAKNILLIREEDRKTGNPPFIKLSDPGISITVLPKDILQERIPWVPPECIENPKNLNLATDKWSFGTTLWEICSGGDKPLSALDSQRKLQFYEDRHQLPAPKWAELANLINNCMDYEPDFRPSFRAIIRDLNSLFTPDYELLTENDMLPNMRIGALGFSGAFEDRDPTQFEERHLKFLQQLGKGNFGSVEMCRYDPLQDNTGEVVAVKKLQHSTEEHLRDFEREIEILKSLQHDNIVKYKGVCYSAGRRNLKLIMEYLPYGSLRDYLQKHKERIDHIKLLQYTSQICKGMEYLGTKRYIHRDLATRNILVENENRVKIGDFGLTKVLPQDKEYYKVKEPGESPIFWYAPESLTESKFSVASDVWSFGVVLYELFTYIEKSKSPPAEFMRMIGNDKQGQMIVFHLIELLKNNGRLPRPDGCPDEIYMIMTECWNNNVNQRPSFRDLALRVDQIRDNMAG
Description for recombinant JAK2: In FIGS. 6A-6D, JAK3, JAK1, and JAK2 were immunoprecipitated from Sf21 insect ovary cells transfected with the appropriate baculovirus expression vectors and treated with WHI-P131, then subjected to in vitro kinase assays as described in the Examples below. The enzymatic activity of JAKs was determined by measuring autophosphorylation in a 10 minute kinase assay, as described in the Examples below. The kinase activity (KA) levels were expressed as percentage of baseline activity (%CON).
Immune Complex Kinase Assays. Sf21 (IPLB-SF21-AE) cells (Vassilev et. al., 1999, J. Biol. Chem,. 274:1646-1656) derived from the ovarian tissue of the fall armyworm Spodotera frugiperda, were obtained from Invitrogen and maintained at 26-28° C. in Grace's insect cell medium supplemented with 10% FBS and 1.0% antibiotic/antimycotic (GIBCO-BRL). Stock cells were maintained in suspension at 0.2-1.6×10^6/ml in 600 ml total culture volume in 1 L Bellco spinner flasks at 60-90 rpm. Cell viability was maintained at 95-100% as determined by trypan blue dye exclusion.
Sf21 cells were infected with a baculovirus expression vector for BTK, SYK, JAK1, JAK2, or JAK3, as previously reported (Mahajan et. al., 1999, J. Biol. Chem., 274:1646-1656). […]

For `COc1cc2ncnc(Nc3ccc(O)c(Br)c3)c2cc1OC` [WHI-P154, 4-(3′-Bromo-4′-hydroxylphenyl)-amino-6,7-dimethoxyquinazoline], the “JAK3-dependent STAT activation after stimulation with IL-2” value in experiment [1] (10 μg/ml, 32Dc11/IL2Rβ cells) was “inhibited”. Further, the “IL-2 triggered JAK-3-dependent STAT activation” value in experiment [1] (100 μg/ml in FIG. 6E legend) is “inhibited”. For the same compound, the “JAK1/JAK2-dependent STAT activation after stimulation with IL-3” value in experiment [2] is “did not affect”. Moreover, the IC50 on recombinant murine JAK3 is 48.1 µg/mL. Besides, on recombinant murine JAK3 (molar value in brackets, read-out: IC50), the 50% inhibitory concentration (IC50) is approximately 128 µM. Also, at recombinant JAK2, the “inhibitory activity against recombinant JAK2” value is given as “did not exhibit any detectable inhibitory activity”. For the same compound, on recombinant JAK1, the “inhibitory activity against recombinant JAK1” value is on record as “did not exhibit any detectable inhibitory activity”. In the experiment with RBL-2H3 mast cells, the LTC4 release entry is on record as “near to complete inhibition”, the TNFα release result is reported as “near to complete inhibition” and the “β-hexosaminidase release (degranulation)” value was “near to complete inhibition”.

As a reminder, the IC50 is the concentration that inhibits the measured activity by half.
